Laboratory results: patent publication US20020065219A1, “Water soluble thiazolyl peptide derivatives” (priority 2000, published 2002)
≈ marks a conversion by molar mass, not a printed value. Read-outs that look alike come from different tables or passages of the source.

Columns and labels:
Assay in all cases: MIC, broth micro dilution assay (NCCLS)
Type in all cases: cell-based
[1] = system: Streptococcus pneumoniae A28272; settings: for MIC: Streptococcus pneumoniae, A28272, 18 h, read-out: MIC (μg/mL) against Streptococcus pneumoniae A28272
[2] = system: Enterococcus faecalis A20688; settings: for MIC: Enterococcus faecalis, A20688, 18 h, read-out: MIC (μg/mL) against Enterococcus faecalis A20688
[3] = system: Staphylococcus aureus A15090; settings: for MIC: Staphylococcus aureus, A15090, 18 h, read-out: MIC (μg/mL) against Staphylococcus aureus A15090
[4] = 50% Mueller-Hinton medium and 50% Todd Hewitt medium, 35° C., 18 hours
[5] = Mueller-Hinton medium, 35° C., 18 hours

Compound	MIC (μg/mL) against Streptococcus pneumoniae A28272 [1] [µg/mL]	MIC (μg/mL) against Enterococcus faecalis A20688 [2] [µg/mL]	MIC (μg/mL) against Staphylococcus aureus A15090 [3] [µg/mL]	MIC (μg/mL) against Streptococcus pneumoniae A28272 [1, 4] [µg/mL]	MIC (μg/mL) against Enterococcus faecalis A20688 [2, 5] [µg/mL]	MIC (μg/mL) against Staphylococcus aureus A15090 [3, 5] [µg/mL]	other results
COCCOCCOCCN1CCN(CC(NC(=O)c2csc(-c3nc4c(cc3O)-c3nc(cs3)C(=O)NC(C(C)O)C(=O)NC(=C(C)OC)c3nc(cs3)C(=O)NC3c5nc(cs5)C(=O)NC(COC(=O)c5c6c7c(cccc7n5O)COC(=O)C(OC5CC(C)(O)C(N(C)C)C(C)O5)C3OC6)c3nc-4cs3)n2)C(N)=O)CC1 (stereo not drawn) [Example 72]	0.5 (≈ 0.299 µM)	4.0 (≈ 2.4 µM)	4.0 (≈ 2.4 µM)	–	–	–	–
CO/C(C)=C1/NC(=O)C(C(C)O)NC(=O)c2csc(n2)-c2cc(O)c(-c3nc(C(=O)NC(CNCCOCCOCCOCCN)C(N)=O)cs3)nc2-c2csc(n2)C2COC(=O)c3c4c5c(cccc5n3O)COC(=O)C(O[C@H]3C[C@](C)(O)[C@H](N(C)C)[C@H](C)O3)C(OC4)C(NC(=O)c3csc1n3)c1nc(cs1)C(=O)N2 (stereo partly drawn) [Example 58]	0.25 (≈ 0.153 µM)	1.0 (≈ 0.614 µM)	1.0 (≈ 0.614 µM)	–	–	–	–
CO/C(C)=C1/NC(=O)C(C(C)O)NC(=O)c2csc(n2)-c2cc(O)c(-c3nc(C(=O)NC(CNCCCN4CCN(C)CC4)C(N)=O)cs3)nc2-c2csc(n2)C2COC(=O)c3c4c5c(cccc5n3O)COC(=O)C(O[C@H]3C[C@](C)(O)[C@H](N(C)C)[C@H](C)O3)C(OC4)C(NC(=O)c3csc1n3)c1nc(cs1)C(=O)N2 (stereo partly drawn) [Example 51]	0.015 (≈ 0.00941 µM)	4.0 (≈ 2.51 µM)	0.25 (≈ 0.157 µM)	–	–	–	–
CO/C(C)=C1/NC(=O)C(C(C)O)NC(=O)c2csc(n2)-c2cc(O)c(-c3nc(C(=O)NC(CNCCN(CCN)CCN)C(N)=O)cs3)nc2-c2csc(n2)C2COC(=O)c3c4c5c(cccc5n3O)COC(=O)C(O[C@H]3C[C@](C)(O)[C@H](N(C)C)[C@H](C)O3)C(OC4)C(NC(=O)c3csc1n3)c1nc(cs1)C(=O)N2 (stereo partly drawn) [Example 12]	–	–	–	0.5 (≈ 0.316 µM)	4.0 (≈ 2.53 µM)	2.0 (≈ 1.26 µM)	–
CO/C(C)=C1/NC(=O)C(C(C)O)NC(=O)c2csc(n2)-c2cc(O)c(-c3nc(C(=O)NC(CSCCN(C)C)C(N)=O)cs3)nc2-c2csc(n2)C2COC(=O)c3c4c5c(cccc5n3O)COC(=O)C(O[C@H]3C[C@](C)(O)[C@H](N(C)C)[C@H](C)O3)C(OC4)C(NC(=O)c3csc1n3)c1nc(cs1)C(=O)N2 (stereo partly drawn) [Example 10]	–	–	–	–	–	–	MIC [1]: 0.015 µg/mL (≈ 0.00972 µM); MIC [2]: 0.25 µg/mL (≈ 0.162 µM); MIC [3]: 0.125 µg/mL (≈ 0.081 µM)
CO/C(C)=C1/NC(=O)C(C(C)O)NC(=O)c2csc(n2)-c2cc(O)c(-c3nc(C(=O)NC(CN4CCN(c5ncccn5)CC4)C(N)=O)cs3)nc2-c2csc(n2)C2COC(=O)c3c4c5c(cccc5n3O)COC(=O)C(O[C@H]3C[C@](C)(O)[C@H](N(C)C)[C@H](C)O3)C(OC4)C(NC(=O)c3csc1n3)c1nc(cs1)C(=O)N2 (stereo partly drawn) [Example 22]	0.0005 (≈ 0.000312 µM)	1.0 (≈ 0.624 µM)	0.5 (≈ 0.312 µM)	–	–	–	–
CO/C(C)=C1/NC(=O)C(C(C)O)NC(=O)c2csc(n2)-c2cc(O)c(-c3nc(C(=O)NC(CN(C)CCc4ccccn4)C(N)=O)cs3)nc2-c2csc(n2)C2COC(=O)c3c4c5c(cccc5n3O)COC(=O)C(O[C@H]3C[C@](C)(O)[C@H](N(C)C)[C@H](C)O3)C(OC4)C(NC(=O)c3csc1n3)c1nc(cs1)C(=O)N2 (stereo partly drawn) [Example 20]	–	–	–	0.005 (≈ 0.00318 µM)	0.25 (≈ 0.159 µM)	0.125 (≈ 0.0794 µM)	–
CO/C(C)=C1/NC(=O)C(C(C)O)NC(=O)c2csc(n2)-c2cc(O)c(-c3nc(C(=O)NC(CNCc4cc(OC)c(OC)c(OC)c4)C(N)=O)cs3)nc2-c2csc(n2)C2COC(=O)c3c4c5c(cccc5n3O)COC(=O)C(O[C@H]3C[C@](C)(O)[C@H](N(C)C)[C@H](C)O3)C(OC4)C(NC(=O)c3csc1n3)c1nc(cs1)C(=O)N2 (stereo partly drawn) [Example 70]	0.06 (≈ 0.0367 µM)	4.0 (≈ 2.45 µM)	0.25 (≈ 0.153 µM)	–	–	–	–
CO/C(C)=C1/NC(=O)C(C(C)O)NC(=O)c2csc(n2)-c2cc(O)c(-c3nc(C(=O)NC(CN[C@@H](C)c4ccccc4)C(N)=O)cs3)nc2-c2csc(n2)C2COC(=O)c3c4c5c(cccc5n3O)COC(=O)C(O[C@H]3C[C@](C)(O)[C@H](N(C)C)[C@H](C)O3)C(OC4)C(NC(=O)c3csc1n3)c1nc(cs1)C(=O)N2 (stereo partly drawn) [Example 61]	–	–	–	0.03 (≈ 0.0192 µM)	0.25 (≈ 0.16 µM)	0.25 (≈ 0.16 µM)	–
COC(C)=C1NC(=O)C(C(C)O)NC(=O)c2csc(n2)-c2cc(O)c(-c3nc(C(=O)NC(CN(C)CCc4ccccn4)C(N)=O)cs3)nc2-c2csc(n2)C2COC(=O)c3c4c5c(cccc5n3O)COC(=O)C(O)C(OC4)C(NC(=O)c3csc1n3)c1nc(cs1)C(=O)N2 (stereo not drawn) [Example 93]	–	–	–	0.001 (≈ 0.000713 µM)	0.06 (≈ 0.0428 µM)	0.06 (≈ 0.0428 µM)	–
CNC(=O)N(C)CC(NC(=O)c1csc(-c2nc3c(cc2O)-c2nc(cs2)C(=O)NC(C(C)O)C(=O)N/C(=C(\C)OC)c2nc(cs2)C(=O)NC2c4nc(cs4)C(=O)NC(COC(=O)c4c5c6c(cccc6n4O)COC(=O)C(OC4CC(C)(O)C(N(C)C)C(C)O4)C2OC5)c2nc-3cs2)n1)C(N)=O (stereo not drawn) [Example 109]	–	–	–	0.06 (≈ 0.0393 µM)	0.5 (≈ 0.328 µM)	0.06 (≈ 0.0393 µM)	–
CO/C(C)=C1/NC(=O)C(C(C)O)NC(=O)c2csc(n2)-c2cc(O)c(-c3nc(C(=O)NC(CN4CCN(C(C)=O)CC4)C(N)=O)cs3)nc2-c2csc(n2)C2COC(=O)c3c4c5c(cccc5n3O)COC(=O)C(O[C@H]3C[C@](C)(O)[C@H](N(C)C)[C@H](C)O3)C(OC4)C(NC(=O)c3csc1n3)c1nc(cs1)C(=O)N2 (stereo partly drawn) [Example 21]	–	–	–	0.03 (≈ 0.0192 µM)	2.0 (≈ 1.28 µM)	0.5 (≈ 0.319 µM)	–
CO/C(C)=C1/NC(=O)C(C(C)O)NC(=O)c2csc(n2)-c2cc(O)c(-c3nc(C(=O)NC(CS(=O)(=O)C4CN5CCC4CC5)C(N)=O)cs3)nc2-c2csc(n2)C2COC(=O)c3c4c5c(cccc5n3O)COC(=O)C(O[C@H]3C[C@](C)(O)C(N(C)C)[C@H](C)O3)C(OC4)C(NC(=O)c3csc1n3)c1nc(cs1)C(=O)N2 (stereo partly drawn) [Example 104]	–	–	–	–	–	–	MIC [1]: 0.06 µg/mL (≈ 0.0372 µM); MIC [2]: 1 µg/mL (≈ 0.62 µM); MIC [3]: 0.5 µg/mL (≈ 0.31 µM)
CNC(=O)On1c2c3c4c(cccc41)COC(=O)C(OC1CC(C)(O)C(N(C)C)C(C)O1)C(OC3)C1NC(=O)c3csc(n3)/C(=C(/C)OC)NC(=O)C(C(C)O)NC(=O)c3csc(n3)-c3cc(O)c(-c4nc(C(=O)NC(CN(CCN(C)C)C(=O)NC)C(N)=O)cs4)nc3-c3csc(n3)C(COC2=O)NC(=O)c2csc1n2 (stereo not drawn) [Example 111]	0.06 (≈ 0.0366 µM)	2.0 (≈ 1.22 µM)	1.0 (≈ 0.61 µM)	–	–	–	–
COC(C)=C1NC(=O)C(C(C)O)NC(=O)c2csc(n2)-c2cc(O)c(-c3nc(C(=O)NC(CN4CCCC4C(C)(C)O)C(N)=O)cs3)nc2-c2csc(n2)C2COC(=O)c3c4c5c(cccc5n3O)COC(=O)C(OC3CC(C)(O)C(N(C)C)C(C)O3)C(OC4)C(NC(=O)c3csc1n3)c1nc(cs1)C(=O)N2 (stereo not drawn) [Example 89]	–	–	–	0.007 (≈ 0.00447 µM)	0.03 (≈ 0.0191 µM)	0.003 (≈ 0.00191 µM)	–
CNCCN(C)CC(NC(=O)c1csc(-c2nc3c(cc2O)-c2nc(cs2)C(=O)NC(C(C)O)C(=O)N/C(=C(\C)OC)c2nc(cs2)C(=O)NC2c4nc(cs4)C(=O)NC(COC(=O)c4c5c6c(cccc6n4O)COC(=O)C(O[C@H]4C[C@](C)(O)[C@H](N(C)C)[C@H](C)O4)C2OC5)c2nc-3cs2)n1)C(N)=O (stereo partly drawn) [Example 23]	–	–	–	0.001 (≈ 0.000655 µM)	0.5 (≈ 0.328 µM)	0.06 (≈ 0.0393 µM)	–
CNC(=O)On1c2c3c4c(cccc41)COC(=O)C(OC1CC(C)(O)C(N(C)C)C(C)O1)C(OC3)C1NC(=O)c3csc(n3)C(=C(C)OC)NC(=O)C(C(C)O)NC(=O)c3csc(n3)-c3cc(O)c(-c4nc(C(=O)NC(CN(C)C(=O)NC)C(N)=O)cs4)nc3-c3csc(n3)C(COC2=O)NC(=O)c2csc1n2 (stereo not drawn) [Example 108]	–	–	–	0.03 (≈ 0.019 µM)	0.5 (≈ 0.316 µM)	0.125 (≈ 0.079 µM)	–
CO/C(C)=C1/NC(=O)C(C(C)O)NC(=O)c2csc(n2)-c2cc(O)c(-c3nc(C(=O)NC(CN4CCN(CCN(C)C)CC4)C(N)=O)cs3)nc2-c2csc(n2)C2COC(=O)c3c4c5c(cccc5n3O)COC(=O)C(O[C@H]3C[C@](C)(O)[C@H](N(C)C)[C@H](C)O3)C(OC4)C(NC(=O)c3csc1n3)c1nc(cs1)C(=O)N2 (stereo partly drawn) [Example 54]	0.25 (≈ 0.157 µM)	0.125 (≈ 0.0784 µM)	0.5 (≈ 0.314 µM)	–	–	–	–
